Laboratory results published in patent US20120128580A1, “PRESELECTION OF SUBJECTS FOR THERAPEUTIC TREATMENT WITH ELESCLOMOL BASED ON HYPOXIC STATUS” (SYNTA PHARMACEUTICALS CORP., priority 2010, published 2012).

Assays:
[1] = system: relapsed or refractory acute myeloid leukemia (AML); experiment: Trial of elesclomol sodium in relapsed or refractory AML with low LDH; format: in vivo, human; settings: baseline serum LDH ≤0.8 ULN, elesclomol sodium once-weekly, starting dose 200 mg/m^2
Procedure: Subjects are identified as having one of relapsed or refractory acute myeloid leukemia (AML). A subject is selected as being candidate for treatment with elesclomol based on appropriate inclusion or exclusion criteria. Routine assessments are made prior to treatment to characterize the disease state of the subject including, but not limited to, imaging studies, hematological studies, and physical examination. Additionally, coded serum sample from the subject is tested to determine the LDH level.
This trial is expected to be sufficiently powered with the enrollment of 36 patients with relapsed or refractory AML and total baseline serum LDH level less-than or equal to 0.8 upper limit of normal (ULN). Patients are treated with elesclomol sodium on a once-weekly schedule at a starting dose of 200 mg/m^2, with dose escalation planned based on safety and tolerability. The primary endpoints are to characterize the safety and tolerability of elesclomol sodium and to determine the pharmacokinetics of elesclomol and its metabolites in this patient population. Secondary endpoints include assessing the activity of elesclomol as a monotherapy in the treatment of AML.

solid tumors = experiment: Trial of elesclomol in subjects with solid tumors stratified by level of hypoxia; format: in vivo, human; settings: elesclomol alone or in combination
From the text: Subjects diagnosed with solid tumors are recruited for a study to determine the efficacy of elesclomol in the treatment of solid tumors, preferably tumors from the same tissue origin, e.g., breast, prostate, lung, liver, brain, colorectal, etc. Inclusion criteria include the presence of a solid tumor. Exclusion criteria include the presence of an ischemia related disease or disorder including, e.g., ischemic heart or vascular disease, poor circulation, diabetes, macular degeneration, recent stroke, or other ischemic events or conditions; or surgery planned during the duration of the trial. […]
All subjects are treated with elesclomol, either alone or in combination with one or more additional chemotherapeutic agents. […] Subjects are monitored for response to the agent throughout the trial, at the end of the trial, and at regular intervals after the conclusion of the trial using routine methods including, but not limited to, e.g., imaging, hematology, and physical examination. […] Preferably, the subjects continue to be monitored for outcomes beyond the formal end of the trial. […]
An analysis of the samples collected from subjects prior to and optionally during treatment is performed to determine the efficacy of elesclomol for the treatment of cancer based on the level of hypoxia of the tumor based on markers assessed prior to and optionally during the treatment of the subjects. […]

CN(NC(=O)CC(=O)NN(C)C(=S)c1ccccc1)C(=S)c1ccccc1 [Elesclomol, N-malonyl-bis(N′-methyl-N′-thiobenzoylhydrazide)]
response of subjects with low levels of hypoxia versus historical control populations [1]: respond better
response of subjects with a low level of hypoxia compared to a high level of hypoxia (solid tumors): better response
